Assay [1] has as its system human monocytic cell line U937. Put plainly: Human U937 Cellular Necroptosis Assay. It counts as cell-based. The conditions noted are these: U-937; U937 cells stimulated with 25 ng/mL human TNFalpha and 25 μM z-VAD-FMK, 22 hr, viability by Cell Titer-Glo 2.0; average value across multiple runs; read-out: hU937 IC50. As to the method: Human U937 Cellular Necroptosis Assay
The human monocytic cell line U937 (CRL-1593.2) was purchased from ATCC. The cells were routinely maintained in RPMI-1640 Medium (Gibco, Catalog #11875-093) supplemented with 10% heat inactivated fetal bovine serum (Gibco, Catalog #16140-071), 100 units/mL penicillin and 100 μg/mL streptomycin (Gibco, Catalog #15140-122), in a humidified incubator (37° C., 5% CO2). For the assay, cells were resuspended in RPMI-1640 phenol red free Media (Gibco, Catalog #11835-030) supplemented with 10% fetal bovine serum (Sigma, Catalog #F2442), 100 units/mL penicillin and 100 ug/mL streptomycin. Cells were stimulated with 25 ng/mL human TNFalpha (Cell Sciences, Catalog #CSI15659B) and 25 μM z-VAD-FMK (R&D Systems, Catalog #FMK001) followed by seeding 5000 cells per well in a volume of 40 μL to a white, CulturPlate-384 (Perkin Elmer, Catalog #6007680). Stock solutions of the test compounds were prepared in 100% DMSO (Sigma, Catalog #D2650) and serially diluted 1:3 using 100% DMSO. Compounds were additionally diluted 1:40 in assay medium, and 10 μL/well was transferred to the plate. Following the compound addition the plate was incubated at 37° C. and 5% CO2 for 22 hr. After 22 hr, viability was assessed with the addition of 20 μL of Cell Titer-Glo 2.0 (Promega, Catalog #G9243). The tissue culture plate was shaken on an orbital shaker at 300 RPM for 15 minutes at room temperature in the dark. Luminescence was measured using a PerkinElmer Envision™ plate reader. IC50 values were calculated using a four-parameter logistic curve fit using Genedata Screener software. Results are shown below in Table 5, where the average value across multiple runs is given.
(In general: In ATP-based viability assays light output follows the ATP content of the culture.)

For another assay, the target named is RIPK1 (Homo sapiens (Human), UniProt Q13546). The assay is described as follows: ADP-Glo Kinase Assay. It counts as biochemical. The conditions noted are these: 5 nM RIPK1 protein, 50 μM ATP, 6 hr reaction, average value across multiple runs. As to the method:
In order to measure RIPK1 activity the ADP-Glo kinase assay (Promega, Catalog #V7002) was used to measure the conversion of ATP to ADP. This enzymatic assay was performed in a 384-well white, Optiplate (Perkin Elmer, Catalog #6007299) with assay buffer consisting of 50 mM HEPES pH 7.5 (Gibco, Catalog #15630-080), 50 mM NaCl (Teknova, Catalog #S0252), 30 mM MgCl2 (Ambion, Catalog #AM9530G), 1 mM DTT (Santa Cruz Biotechnology, Catalog #sc-29089), 0.05% BSA (Sigma, Catalog #A3059-50G) and 0.02% CHAPS (Sigma, Catalog #C5070-5G). Stock solutions of the test compounds were prepared in 100% DMSO (Sigma, Catalog #D2650) and serially diluted 1:3 using 100% DMSO. Compounds were additionally diluted 1:40 in assay buffer, and 2 μL/well were transferred to the assay plate. 4 μL/well (final concentration of 5 nM) of RIPK1 protein (SignalChem, Catalog #R07-11G-05) diluted in assay buffer and added to the assay plate followed by a 10 minute preincutation at room temperature. 4 μL/well of ATP (Promega, Catalog #V7002) (final concentration of 50 μM) diluted in assay buffer were then added to the assay plate followed by a 6 hr reaction time. Final concentrations of RIPK1 and ATP refer to a 10 μL volume. Luminescence was measured using a BioTek Synergy™ NEO plate reader. IC50 values were calculated using a four-parameter logistic curve fit using Genedata Screener software. Results are shown below in Table 4, where the average value across multiple runs is given.
On the technique in general: ADP-Glo first removes unused ATP, then detects ADP through luciferase.

Here are results for 28 molecules from patent publication US11690850B2, “Inhibitors of receptor interacting protein kinase I for the treatment of disease” (Board of Regents, The University of Texas System, priority 2019, dated 2023).

Values joined by “and” are separate entries in the source; they are usually repeats but may differ in a detail not shown here. Equal values may be shown once.

Sequence of RIPK1 (Q13546 1-327): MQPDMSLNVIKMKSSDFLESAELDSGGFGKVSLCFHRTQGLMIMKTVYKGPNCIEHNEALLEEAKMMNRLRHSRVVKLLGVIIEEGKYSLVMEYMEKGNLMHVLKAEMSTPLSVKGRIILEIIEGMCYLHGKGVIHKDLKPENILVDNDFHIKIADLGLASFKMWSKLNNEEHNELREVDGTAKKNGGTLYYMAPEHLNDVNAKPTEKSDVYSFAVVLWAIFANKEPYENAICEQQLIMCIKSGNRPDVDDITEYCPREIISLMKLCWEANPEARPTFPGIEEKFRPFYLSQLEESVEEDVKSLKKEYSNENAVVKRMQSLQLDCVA

The term IC50 denotes the concentration needed to halve the response being measured. Turning to `Cc1ccc(-n2nc(C(=O)N[C@H]3COc4cccnc4N(C)C3=O)c(=O)c(Cl)c2C)cc1F` [Example 82, (S)-5-chloro-1-(3-fluoro-4-methyl-phenyl)-6-methyl-N-(5-methyl-4-oxo-2,3,4,5-tetrahydropyrido[3,2-b]-[1,4]oxazepin-3-yl)-4-oxo-1,4-dihydropyridazine-3-carboxamide], the IC50 in assay [1] was 56.4 nM.

Regarding `Cc1cc(=O)c(C(=O)Nc2cccc(Cl)c2)nn1-c1ccccc1` [Example 4, N-(3-chlorophenyl)-6-methyl-4-oxo-1-phenyl-1,4-dihydropyridazine-3-carboxamide], the IC50 on RIPK1 is 0.08 µM.

In the case of `Cc1cc(=O)c(C(=O)Nc2c(C(C)C)cccc2C(C)C)nn1-c1ccccc1` [Example 117, N-(2,6-diisopropylphenyl)-6-methyl-4-oxo-1-phenyl-1,4-dihydropyridazine-3-carboxamide], at RIPK1, the IC50 worked out at 1.19 µM.

For the molecule `COCc1cc(=O)c(C(=O)Nc2cccc(Cl)c2F)nn1-c1ccccc1` [Example 35, N-(3-chloro-2-fluorophenyl)-6-(methoxymethyl)-4-oxo-1-phenyl-1,4-dihydropyridazine-3-carboxamide], the IC50 at RIPK1 worked out at 1.78 µM.

`Cc1ccc(NC(=O)c2nn(-c3ccccc3)c(C)cc2=O)cc1` [Example 97, 6-methyl-4-oxo-1-phenyl-N-(p-tolyl)-1,4-dihydropyridazine-3-carboxamide]: the IC50 on RIPK1 came out at 11.6 µM.

For the molecule `Cc1cc(=O)c(C(=O)Nc2ccc(Cl)cn2)nn1-c1ccccc1F` [Example 100, N-(5-chloropyridin-2-yl)-1-(2-fluorophenyl)-6-methyl-4-oxo-1,4-dihydropyridazine-3-carboxamide], the IC50 on RIPK1 was found to be 43.8 µM.

For the molecule `Cc1n[nH]c(C)c1NC(=O)c1nn(-c2ccccc2)c(C)cc1=O` [Example 19, N-(3,5-dimethyl-1H-pyrazol-4-yl)-6-methyl-4-oxo-1-phenyl-1,4-dihydropyridazine-3-carboxamide], the IC50 at RIPK1 is 12.6 µM.

Take `Cc1cc(NC(=O)c2nn(-c3ccccc3)c(C)cc2=O)sn1` [Example 111, 6-methyl-N-(3-methylisothiazol-5-yl)-4-oxo-1-phenyl-1,4-dihydropyridazine-3-carboxamide]: the IC50 on RIPK1 amounted to 39.1 µM.

Regarding `Cc1cc(=O)c(C(=O)Nc2ccccn2)nn1-c1ccccc1` [Example 106, 6-methyl-4-oxo-1-phenyl-N-(pyridin-2-yl)-1,4-dihydropyridazine-3-carboxamide], on RIPK1, the IC50 amounted to 1.78 µM.

For `Cc1nn(C)c(C)c1NC(=O)c1nn(-c2ccccc2)c(C)cc1=O` [Example 14, 6-methyl-4-oxo-1-phenyl-N-(1,3,5-trimethyl-1H-pyrazol-4-yl)-1,4-dihydropyridazine-3-carboxamide], the IC50 on RIPK1 came to 4.61 µM.

In the case of `Cc1cc(=O)c(C(=O)Nc2cc(Cl)c3ncsc3c2)nn1-c1ccccc1` [Example 12, N-(4-chlorobenzo[d]thiazol-6-yl)-6-methyl-4-oxo-1-phenyl-1,4-dihydropyridazine-3-carboxamide], the IC50 at RIPK1 was found to be 1.18 µM.

Turning to `Cc1cc(=O)c(C(=O)N2CCC(Oc3ccccn3)C2)nn1-c1ccccc1` (stereo not shown) [Example 113, 6-methyl-1-phenyl-3-(3-(pyridin-2-yloxy)pyrrolidine-1-carbonyl)pyridazin-4(1H)-one], the IC50 at RIPK1 is 29.5 µM.

Consider `Cc1cccc(NC(=O)c2nn(-c3ccccc3F)c(C)cc2=O)c1` [Example 107, 1-(2-fluorophenyl)-6-methyl-4-oxo-N-(m-tolyl)-1,4-dihydropyridazine-3-carboxamide], for which the IC50 at RIPK1 was 20.2 µM.

For the molecule `Cc1cc(=O)c(C(=O)NCC2CCC2)nn1-c1ccccc1` [Example 104, N-(cyclobutylmethyl)-6-methyl-4-oxo-1-phenyl-1,4-dihydropyridazine-3-carboxamide], the IC50 on RIPK1 stood at 8.25 µM.

On to `Cc1cc(=O)c(C(=O)Nc2ccccc2C2CC2)nn1-c1ccccc1` [Example 30, N-(2-cyclopropylphenyl)-6-methyl-4-oxo-1-phenyl-1,4-dihydropyridazine-3-carboxamide], for which the IC50 on RIPK1 was 15.5 µM.

`COCc1cc(=O)c(C(=O)Nc2cccc(Cl)c2F)nn1C` [Example 88, N-(3-chloro-2-fluorophenyl)-6-(methoxymethyl)-1-methyl-4-oxo-1,4-dihydropyridazine-3-carboxamide]: the 50% inhibitory concentration (IC50) on RIPK1 turned out to be 33.3 µM.

Take `Cc1ncnc(C)c1NC(=O)c1nn(-c2ccccc2)c(C)cc1=O` [Example 25, N-(4,6-dimethylpyrimidin-5-yl)-6-methyl-4-oxo-1-phenyl-1,4-dihydropyridazine-3-carboxamide]: the IC50 on RIPK1 amounted to 3.87 µM.

As for `Cc1cc(NC(=O)c2nn(-c3ccccc3)c(C)cc2=O)ncn1` [Example 15, 6-methyl-N-(6-methylpyrimidin-4-yl)-4-oxo-1-phenyl-1,4-dihydropyridazine-3-carboxamide], the IC50 at RIPK1 amounted to 13.6 µM.

For the molecule `Cc1ccnc(NC(=O)c2nn(-c3ccccc3)c(C)cc2=O)c1` [Example 114, 6-methyl-N-(4-methylpyridin-2-yl)-4-oxo-1-phenyl-1,4-dihydropyridazine-3-carboxamide], the IC50 at RIPK1 was 5.6 µM and 7.5 µM.

For `Cc1ccc(-n2nc(C(=O)NC3CCc4ccccc4NC3=O)c(=O)cc2C)cc1F` (stereo not shown) [Example 52, 1-(3-fluoro-4-methylphenyl)-6-methyl-4-oxo-N-(2-oxo-2,3,4,5-tetrahydro-1H-benzo[b]azepin-3-yl)-1,4-dihydro-pyridazine-3-carboxamide], the IC50 at RIPK1 is 0.037 µM.

`Cc1cc(=O)c(C(=O)Nc2c(C(C)C)nn(C)c2C(C)C)nn1-c1ccccc1` [Example 89, N-(3,5-diisopropyl-1-methyl-1H-pyrazol-4-yl)-6-methyl-4-oxo-1-phenyl-1,4-dihydropyridazine-3-carboxamide]: the IC50 on RIPK1 was found to be 18.6 µM.

As to `Cc1cc(C)c2nc(NC(=O)c3nn(-c4ccccc4)c(C)cc3=O)sc2c1` [Example 87, N-(4,6-dimethylbenzo[d]thiazol-2-yl)-6-methyl-4-oxo-1-phenyl-1,4-dihydropyridazine-3-carboxamide], the IC50 on RIPK1 was found to be 20.8 µM.

`Cc1cc(=O)c(C(=O)NC2CC2)nn1-c1ccccc1` [Example 91, N-cyclopropyl-6-methyl-4-oxo-1-phenyl-1,4-dihydropyridazine-3-carboxamide]: on RIPK1, the IC50 was determined as 5.31 µM.

On to `Cc1cc(=O)c(C(=O)Nc2c(C(C)C)ncnc2C(C)C)nn1-c1ccccc1` [Example 34, N-(4,6-diisopropylpyrimidin-5-yl)-6-methyl-4-oxo-1-phenyl-1,4-dihydropyridazine-3-carboxamide], for which the IC50 at RIPK1 was 3.91 µM.

As to `Cc1cc(=O)c(C(=O)Nc2ccncc2)nn1-c1ccccc1` [Example 115, 6-methyl-4-oxo-1-phenyl-N-(pyridin-4-yl)-1,4-dihydropyridazine-3-carboxamide], the IC50 on RIPK1 was 2.92 µM and 3.47 µM.

As for `Cc1cc(=O)c(C(=O)Nc2ccccn2)nn1-c1ccc(Cl)cc1` [Example 103, 1-(4-chlorophenyl)-6-methyl-4-oxo-N-(pyridin-2-yl)-1,4-dihydropyridazine-3-carboxamide], the IC50 at RIPK1 is 5 µM.

Turning to `Cc1cc(=O)c(C(=O)Nc2c3c(nc4ccccc24)CCCC3)nn1-c1ccccc1` [Example 23, 6-methyl-4-oxo-1-phenyl-N-(1,2,3,4-tetrahydroacridin-9-yl)-1,4-dihydropyridazine-3-carboxamide], at RIPK1, the IC50 came out at 1.14 µM.

Turning to `Cc1cccc(C)c1NC(=O)c1nn(-c2ccccc2)c(C)cc1=O` [Example 22, N-(2,6-dimethylphenyl)-6-methyl-4-oxo-1-phenyl-1,4-dihydropyridazine-3-carboxamide], the IC50 on RIPK1 came to 1.5 µM.
